From US20180008717A1, “PHARMACEUTICAL COMPOSITION WITH ANALGESIC AND ANTI-INFLAMMATORY ACTIVITY” (priority 2016, published 2018)
Where a name gives a salt, the structure may show the parent alone.

Legend:
Assay type in all cases: in vivo
[1] = system: mice; assay: Hot plate test (topical ointment); details: hot plate 55 degrees Celsius, 2 percent w/w ointment topically 5 min before, cut-off 60 seconds, mean±SEM
Description: (§1) Example 3 illustrates the analgesic activity of the esters evaluated using models of providing thermal stimuli (hot plate) and chemical stimuli (formalin, capsaicin and allyl isothiocyanate) to the subjects i.e., mice.
TEST 1: Hot plate test: The hot plate test (HPT) is often used for investigation of a noxious stimulus (heat) in models of acute pain. Classically, the latency of the animal's response to the stimulus is recorded as the dependent variable.
All compounds, including BZC, were applied topically in an ointment (2 percent weight by weight based on the total weight of formulation) prepared according to the procedure described in Example 1. The ointments were applied both to the palmar and plantar surfaces of the paws of the mice by gently rubbing 5 min before analgesic activity evaluation. A corresponding amount of the ointment base were similarly applied for mice used as control animals. The mice were placed on a hot plate maintained at 55 degrees Celsius, one at a time. In this experiment, latency to respond to the heat stimulus was determined by the amount of time (in seconds) it took for a mouse to lick one of its paws. Cut-off time was fixed at 60 seconds to minimize the tissue damage that occurs during prolonged contact with heated surface. All values are expressed as the mean±standard errors of the mean (SEM) in all the tables.

[2] = system: mice; assay: Capsaicin test (topical ointment); details: capsaicin 6 micrograms/paw s.c., 2 percent w/w ointment topically 5 min before, observed 5 minutes, mean±SEM
Text: as §1
TEST 2: Capsaicin test: Capsaicin (8-methyl-N-vanillyl-6-nonenamide), the pungent substance obtained from hot red pepper, is used to evaluate analgesic activity on mice, for compounds synthesized herein.
All compounds, including BZC, were applied topically as an ointment (2 percent weight by weight based on the total weight of formulation) prepared according to the procedure described in Example 2. The ointments were applied to the affected paws' surface by gently rubbing 5 min before analgesic activity evaluation. A corresponding amount of the ointment base were similarly applied for mice used as control animals. To evaluate analgesic activity 20 microliter of capsaicin solution in 1,2-propylene glycol (6 micrograms/paw) was injected subcutaneously under the skin of the dorsal surface of the hindpaw. Animals were observed individually for 5 minutes after capsaicin administration. The amount of time that mice spent licking the injected paw was recorded and considered as an index of pain.

[3] = system: mice; assay: Formalin test, early phase (topical ointment); details: 20 microliter 2 percent formalin s.c., 2 percent w/w ointment topically 5 minutes before, 0 to 5 min (early phase), mean±SEM
Description: as §1
TEST 3: Formalin test: The formalin test was used to determine the potential analgesic effects of compounds for states of persistent pain in which tissue damage occurs. The nociceptive response produced by formalin is biphasic: an early response (0 to 5 min after injection) and a late response (20 to 30 minutes after injection). These two phases can be distinguished pharmacologically: phase 1 is supposed to represent a direct chemical stimulation of nociceptors while phase 2 is thought to involve inflammation. Aiming at assessment precisely response caused by a burst of activity from pain fibers we measured the licking time as an indicator of nociception only during the first (early) phase. All compounds, including BZC, were applied topically in an ointment (2 percent weight by weight based on the total weight of formulation) prepared according to the procedure described in Example 2. The ointments were applied to the affected paws' surface by gently rubbing 5 minutes before analgesic activity evaluation. A corresponding amount of the ointment base were similarly applied for mice used as control animals. After that, 20 microliter of a 2 percent formalin solution in 0.9 percent NaCl (w/w) was injected subcutaneously into the dorsal surface of the hindpaw. The animal then was placed in an individual plexiglass cage. The time spent by the animal in licking the injected paw was measured from 0 to 5 min (early phase) after formalin administration and was considered as an indicator of pain response.

[4] = system: mice; assay: Allyl isothiocyanate (AITC, TRPA1 agonist) test (topical ointment); details: 20 microliters 0.5 percent AITC s.c., 2 percent w/w ointment topically 5 min before, observed 10 minutes, mean±SEM
Description: as §1
TEST 4: Allyl isothiocyanate test: The analgesic activity was evaluated by a model of chemical stimulus with the use of TRPA1 agonist—allyl isothiocyanate (AITC).
20 Microliters of 0.5 percent (w/w in 1,2-propylene glycol) AITC solution was injected subcutaneously under the skin of the dorsal surface of the right hindpaw. All compounds, including BZC, were applied topically in an ointment (2 percent weight by weight based on the total weight of formulation) prepared according to the procedure described in Example 2. The ointments were applied to the affected paws' surface by gently rubbing 5 min before analgesic activity evaluation. A corresponding amount of the ointment base were similarly applied for mice used as control animals. AITC dose was selected based on our preliminary trials and from literature citations. Animals were observed individually for 10 minutes after AITC administration. The amount of time that mice spent licking the injected paw (reaction time in seconds) was recorded and considered as an index of pain.

[5] = system: rat paw; assay: AITC-induced rat paw edema assay; details: for ability to decrease the AITC-induced inflammatory state compared with ibuprofen: 2 percent w/w ointment topically; for time of inflammation maximum following AITC injection: 2 percent w/w ointment, vehicle edema maximum at 3 hours; for level of AITC-induced edema (volume of affected paw): AITC 100 microgram per paw, 2 percent w/w ointment topically 30 minutes before and at each time point, percentage of the control
Description: One-way analysis of variance (ANOVA) followed by Tukey's post hoc comparison.
The anti-inflammatory effect was determined using an AITC-induced rat paw edema assay. […] The ointments were additionally applied by gently rubbing on the affected paw at each time point.

## CCOC(=O)c1ccc(N)cc1 [Benzocaine, benzocaine, reference compound]
[1]
  Reaction time (latency to lick a paw): 18.3 ± 0.9 s
[1]; listed as BZC
  Reaction time (latency to lick a paw): about 18.3 sec
[2]
  Licking time: 28.7 ± 6.6 s
[3]
  Licking time: 36.3 ± 2.4 s
[4]
  Licking time: 48.0 ± 2.0 s

## CC(C)[C@@H]1CC[C@@H](C)C[C@H]1OC(=O)CCCN [Compound 1, (1R,2S,5R)-2-isopropyl-5-methylcyclohexyl-4-aminobutyrate hydrochloride]
[1]; listed as COMPOUND 1, hydrochloride
  Reaction time (latency to lick a paw): 30.2 ± 2.6 s
[1]; listed as compound 1, hydrochloride
  Reaction time (latency to lick a paw): about 30.2 sec
[2]
  Licking time: 4.3 ± 0.9 s
[3]
  Licking time: 30.3 ± 7.4 s
[4]
  Licking time: 2.7 ± 0.3 s
[5]
  ability to decrease the AITC-induced inflammatory state compared with ibuprofen: exceed reference drug ibuprofen
  time of inflammation maximum following AITC injection: about 1.5 hours
  level of AITC-induced edema (volume of affected paw): 136%

## Cc1ccc(C(C)C)c(OC(=O)CCCN)c1.Cl [Compound 2, 2-isopropyl-5-methylphenyl 4-aminobutyrate hydrochloride]
[1]; listed as COMPOUND 2, hydrochloride
  Reaction time (latency to lick a paw): 21.3 ± 0.9 s
[1]; listed as compound 2, hydrochloride
  Reaction time (latency to lick a paw): about 21.3 sec
[2]
  Licking time: 19.7 ± 2.6 s
[3]
  Licking time: 52.2 ± 6.6 s
[4]
  Licking time: 20.3 ± 5.8 s
[5]
  ability to decrease the AITC-induced inflammatory state compared with ibuprofen: exceed reference drug ibuprofen
  time of inflammation maximum following AITC injection: about 1.5 hours
  level of AITC-induced edema (volume of affected paw): 112%

## Cc1ccc(C(C)C)cc1OC(=O)CCCN.Cl [Compound 3, 5-isopropyl-2-methylphenyl 4-aminobutyrate hydrochloride]
[1]; listed as COMPOUND 3, hydrochloride
  Reaction time (latency to lick a paw): 19.3 ± 3.8 s
[1]; listed as compound 3, hydrochloride
  Reaction time (latency to lick a paw): about 19.3 sec
[2]
  Licking time: 12.0 ± 1.2 s
[3]
  Licking time: 31.1 ± 8.3 s
[4]
  Licking time: 22.8 ± 4.3 s
[5]
  ability to decrease the AITC-induced inflammatory state compared with ibuprofen: relatively comparable effects with ibuprofen
  time of inflammation maximum following AITC injection: about 1.5 hours

## COc1ccccc1OC(=O)CCCN.Cl [Compound 4, 2-methoxylphenyl 4-aminobutyrate hydrochloride]
[1]; listed as COMPOUND 4, hydrochloride
  Reaction time (latency to lick a paw): 16.5 ± 3.7 s
[1]; listed as compound 4, hydrochloride
  Reaction time (latency to lick a paw): about 16.5 sec
[2]
  Licking time: 24.3 ± 3.3 s
[3]
  Licking time: 47.6 ± 9.8 s
[4]
  Licking time: 25.3 ± 1.5 s
[5]
  ability to decrease the AITC-induced inflammatory state compared with ibuprofen: relatively comparable effects with ibuprofen
  time of inflammation maximum following AITC injection: about 1.5 hours

## CC(C)Cc1ccc(C(C)C(=O)O)cc1 (stereo not drawn) [ibuprofen, reference compound]
[5]
  time of inflammation maximum following AITC injection: about 1.5 hours
